In ChEMBL document CHEMBL4507259 (2021):

Tests used:
[1] = tested on: DU-145; assay: DU-145 Proliferation; assay type: functional, cell-based; details: Homo sapiens
[2] = target: Sodium-dependent dopamine transporter (Homo sapiens, UniProt Q01959); assay: dopamine transporter (h) CEREP ligand profiling; details: filed as antagonist, Compound concentration 10.0 uM
[3] = target: 5-hydroxytryptamine receptor 2B (Homo sapiens, UniProt P41595); assay: 5-HT2B (h) CEREP ligand profiling; details: filed as agonist, Compound concentration 10.0 uM
[4] = target: Sodium/potassium-transporting ATPase (Homo sapiens) (UniProt P05023+P14415+P05026+P50993+P54709+P13637+Q13733+P54710); assay: ATPase (Na+/K+) CEREP ligand profiling; assay type: protein-complex assay; details: Compound concentration 10.0 uM
[5] = target: Mitogen-activated protein kinase kinase kinase 5 (Homo sapiens) (UniProt Q99683); details: Compound concentration 1000.0 nM
[6] = target: Bone morphogenetic protein receptor type-1B (Homo sapiens) (UniProt O00238); details: Compound concentration 1000.0 nM
Sequence of Bone morphogenetic protein receptor type-1B (Homo sapiens) (O00238 whole entry): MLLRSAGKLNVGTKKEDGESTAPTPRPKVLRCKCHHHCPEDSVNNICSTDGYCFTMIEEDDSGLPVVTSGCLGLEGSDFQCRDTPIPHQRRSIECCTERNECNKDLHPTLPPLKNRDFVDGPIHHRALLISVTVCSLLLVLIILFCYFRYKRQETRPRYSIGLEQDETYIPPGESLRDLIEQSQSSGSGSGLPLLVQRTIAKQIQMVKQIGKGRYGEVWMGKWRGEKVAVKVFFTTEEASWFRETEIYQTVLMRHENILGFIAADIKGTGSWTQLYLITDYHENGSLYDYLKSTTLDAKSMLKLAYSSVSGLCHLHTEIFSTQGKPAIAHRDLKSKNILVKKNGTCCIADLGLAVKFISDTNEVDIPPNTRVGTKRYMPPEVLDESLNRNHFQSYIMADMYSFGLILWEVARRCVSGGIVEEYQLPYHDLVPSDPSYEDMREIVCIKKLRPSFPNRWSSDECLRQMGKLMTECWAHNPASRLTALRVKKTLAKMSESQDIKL

[7] = target: Calcium/calmodulin-dependent protein kinase type II subunit beta (Homo sapiens) (UniProt Q13554); details: Compound concentration 1000.0 nM
Sequence of Calcium/calmodulin-dependent protein kinase type II subunit beta (Homo sapiens) (Q13554 whole entry): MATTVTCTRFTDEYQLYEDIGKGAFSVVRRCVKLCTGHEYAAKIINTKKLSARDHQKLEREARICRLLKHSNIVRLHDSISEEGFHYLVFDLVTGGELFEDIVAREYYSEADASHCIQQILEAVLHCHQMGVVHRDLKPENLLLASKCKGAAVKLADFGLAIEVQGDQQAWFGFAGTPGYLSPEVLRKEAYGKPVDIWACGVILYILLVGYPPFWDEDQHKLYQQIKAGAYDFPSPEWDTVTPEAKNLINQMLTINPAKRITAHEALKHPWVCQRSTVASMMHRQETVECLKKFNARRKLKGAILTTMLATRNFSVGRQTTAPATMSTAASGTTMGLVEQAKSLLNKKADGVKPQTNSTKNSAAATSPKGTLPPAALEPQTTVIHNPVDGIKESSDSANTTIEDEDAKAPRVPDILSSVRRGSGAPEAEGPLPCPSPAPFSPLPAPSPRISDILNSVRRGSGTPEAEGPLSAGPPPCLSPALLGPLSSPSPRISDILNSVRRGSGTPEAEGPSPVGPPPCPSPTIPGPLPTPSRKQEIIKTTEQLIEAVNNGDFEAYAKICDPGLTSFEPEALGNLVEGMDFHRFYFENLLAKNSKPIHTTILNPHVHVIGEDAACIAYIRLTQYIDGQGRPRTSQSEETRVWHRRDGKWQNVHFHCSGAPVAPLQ

[8] = target: Peripheral plasma membrane protein CASK (Homo sapiens) (UniProt O14936); details: Compound concentration 1000.0 nM
[9] = target: Cyclin-dependent kinase 2 (Homo sapiens) (UniProt P24941); details: Compound concentration 1000.0 nM
[10] = target: Death-associated protein kinase 3 (Homo sapiens) (UniProt O43293); details: Compound concentration 1000.0 nM
Sequence of Death-associated protein kinase 3 (Homo sapiens) (O43293 whole entry, looked up): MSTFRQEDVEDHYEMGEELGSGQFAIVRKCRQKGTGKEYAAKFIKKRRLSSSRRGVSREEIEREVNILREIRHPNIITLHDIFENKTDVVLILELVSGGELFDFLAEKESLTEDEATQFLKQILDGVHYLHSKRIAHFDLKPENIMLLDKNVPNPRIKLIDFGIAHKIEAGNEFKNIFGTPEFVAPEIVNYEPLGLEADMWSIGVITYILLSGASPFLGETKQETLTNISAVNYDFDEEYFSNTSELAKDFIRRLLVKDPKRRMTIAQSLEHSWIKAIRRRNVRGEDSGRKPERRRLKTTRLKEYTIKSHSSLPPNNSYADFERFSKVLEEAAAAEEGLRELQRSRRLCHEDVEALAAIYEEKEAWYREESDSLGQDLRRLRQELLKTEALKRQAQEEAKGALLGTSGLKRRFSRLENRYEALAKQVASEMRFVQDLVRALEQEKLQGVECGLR

[11] = target: Mitogen-activated protein kinase kinase kinase 12 (Homo sapiens) (UniProt Q12852); details: Compound concentration 1000.0 nM
[12] = tested on: Epidermal growth factor receptor (Homo sapiens), P00533 [UNDEFINED MUTATION]; details: Compound concentration 1000.0 nM
[13] = target: Receptor tyrosine-protein kinase erbB-4 (Homo sapiens) (UniProt Q15303); details: Compound concentration 1000.0 nM
[14] = target: Fibroblast growth factor receptor 1 (Homo sapiens) (UniProt P11362); details: Compound concentration 1000.0 nM
[15] = tested on: Receptor-type tyrosine-protein kinase FLT3 (Homo sapiens), P36888 [R834Q]; details: Compound concentration 1000.0 nM
[16] = target: Mast/stem cell growth factor receptor Kit (Homo sapiens) (UniProt P10721); details: Compound concentration 1000.0 nM
[17] = target: Leukocyte tyrosine kinase receptor (Homo sapiens) (UniProt P29376); details: Compound concentration 1000.0 nM
Sequence of Leukocyte tyrosine kinase receptor (Homo sapiens) (P29376 whole entry): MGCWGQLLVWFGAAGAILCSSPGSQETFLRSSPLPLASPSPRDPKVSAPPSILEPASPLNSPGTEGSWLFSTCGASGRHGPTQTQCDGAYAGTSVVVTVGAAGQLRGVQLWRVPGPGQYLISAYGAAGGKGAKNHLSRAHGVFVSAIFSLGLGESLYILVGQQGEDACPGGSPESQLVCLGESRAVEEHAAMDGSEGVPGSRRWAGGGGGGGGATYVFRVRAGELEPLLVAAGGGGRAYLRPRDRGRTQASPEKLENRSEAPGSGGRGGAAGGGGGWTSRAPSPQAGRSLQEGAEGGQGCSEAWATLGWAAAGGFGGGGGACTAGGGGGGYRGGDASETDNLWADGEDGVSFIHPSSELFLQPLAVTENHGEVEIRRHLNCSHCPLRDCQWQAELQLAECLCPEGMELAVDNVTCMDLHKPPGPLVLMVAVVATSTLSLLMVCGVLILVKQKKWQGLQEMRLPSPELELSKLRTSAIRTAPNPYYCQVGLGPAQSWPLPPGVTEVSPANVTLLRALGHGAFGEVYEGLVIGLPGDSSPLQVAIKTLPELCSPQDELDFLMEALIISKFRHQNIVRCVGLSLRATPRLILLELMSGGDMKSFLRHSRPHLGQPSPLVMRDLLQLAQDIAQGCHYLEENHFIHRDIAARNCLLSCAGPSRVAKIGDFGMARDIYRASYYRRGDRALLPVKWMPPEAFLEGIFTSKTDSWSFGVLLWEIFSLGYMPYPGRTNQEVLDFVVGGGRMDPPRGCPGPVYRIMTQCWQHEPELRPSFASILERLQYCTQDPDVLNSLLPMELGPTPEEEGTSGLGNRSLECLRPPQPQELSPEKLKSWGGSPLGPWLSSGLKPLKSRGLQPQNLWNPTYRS

[18] = target: Mitogen-activated protein kinase kinase kinase 1 (Homo sapiens) (UniProt Q13233); details: Compound concentration 1000.0 nM
[19] = target: Mitogen-activated protein kinase kinase kinase 3 (Homo sapiens) (UniProt Q99759); details: Compound concentration 1000.0 nM
[20] = target: Maternal embryonic leucine zipper kinase (Homo sapiens) (UniProt Q14680); details: Compound concentration 1000.0 nM
[21] = target: Myosin light chain kinase (Homo sapiens) (UniProt Q32MK0); details: Compound concentration 1000.0 nM
[22] = target: Serine/threonine-protein kinase 38 (Homo sapiens) (UniProt Q15208); details: Compound concentration 1000.0 nM
Sequence of Serine/threonine-protein kinase 38 (Homo sapiens) (Q15208 2-465 limits assumed): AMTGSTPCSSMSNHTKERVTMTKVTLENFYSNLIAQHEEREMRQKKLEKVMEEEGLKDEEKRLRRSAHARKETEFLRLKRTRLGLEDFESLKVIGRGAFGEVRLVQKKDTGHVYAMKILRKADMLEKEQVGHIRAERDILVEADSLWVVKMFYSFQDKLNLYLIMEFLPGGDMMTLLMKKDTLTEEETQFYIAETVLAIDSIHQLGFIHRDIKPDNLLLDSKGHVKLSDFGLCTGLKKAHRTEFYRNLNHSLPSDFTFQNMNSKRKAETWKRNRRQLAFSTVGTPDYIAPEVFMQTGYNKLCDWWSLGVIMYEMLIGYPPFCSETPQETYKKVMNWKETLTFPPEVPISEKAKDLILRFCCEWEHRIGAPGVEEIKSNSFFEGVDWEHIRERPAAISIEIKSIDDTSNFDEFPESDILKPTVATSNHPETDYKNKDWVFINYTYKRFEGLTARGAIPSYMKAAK

[23] = target: Serine/threonine-protein kinase 38-like (Homo sapiens) (UniProt Q9Y2H1); details: Compound concentration 1000.0 nM
Sequence of Serine/threonine-protein kinase 38-like (Homo sapiens) (Q9Y2H1 2-464 limits assumed): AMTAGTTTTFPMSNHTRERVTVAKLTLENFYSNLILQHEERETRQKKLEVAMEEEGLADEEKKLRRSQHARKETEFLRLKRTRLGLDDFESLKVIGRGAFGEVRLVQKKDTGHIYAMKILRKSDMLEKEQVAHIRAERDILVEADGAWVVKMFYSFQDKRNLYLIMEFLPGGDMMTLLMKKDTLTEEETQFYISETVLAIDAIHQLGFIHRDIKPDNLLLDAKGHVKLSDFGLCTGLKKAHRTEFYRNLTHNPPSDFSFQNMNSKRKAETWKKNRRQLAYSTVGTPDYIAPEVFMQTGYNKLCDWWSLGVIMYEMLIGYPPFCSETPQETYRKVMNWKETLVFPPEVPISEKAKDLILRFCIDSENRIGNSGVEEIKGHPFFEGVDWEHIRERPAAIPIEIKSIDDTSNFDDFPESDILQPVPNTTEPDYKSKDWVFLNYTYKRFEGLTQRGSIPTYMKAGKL

[24] = target: Serine/threonine-protein kinase Nek10 (Homo sapiens) (UniProt Q6ZWH5); details: Compound concentration 1000.0 nM
[25] = target: Serine/threonine-protein kinase Nek2 (Homo sapiens) (UniProt P51955); details: Compound concentration 1000.0 nM
[26] = target: Mitogen-activated protein kinase 13 (Homo sapiens) (UniProt O15264); details: Compound concentration 1000.0 nM
[27] = tested on: Phosphatidylinositol 4,5-bisphosphate 3-kinase catalytic subunit alpha isoform (Homo sapiens), P42336 [Q546K]; details: Compound concentration 1000.0 nM
[28] = target: Ribosomal protein S6 kinase alpha-4 (Homo sapiens) (UniProt O75676); details: Compound concentration 1000.0 nM
[29] = target: Ribosomal protein S6 kinase alpha-5 (Homo sapiens) (UniProt O75582); details: Compound concentration 1000.0 nM
[30] = target: Ribosomal protein S6 kinase alpha-3 (Homo sapiens) (UniProt P51812); details: Compound concentration 1000.0 nM
[31] = target: Serine/threonine-protein kinase Sgk1 (Homo sapiens) (UniProt O00141); details: Compound concentration 1000.0 nM
[32] = target: Serine/threonine-protein kinase 33 (Homo sapiens) (UniProt Q9BYT3); details: Compound concentration 1000.0 nM
[33] = target: Serine/threonine-protein kinase ULK2 (Homo sapiens) (UniProt Q8IYT8); details: Compound concentration 1000.0 nM
[34] = target: Mitogen-activated protein kinase kinase kinase 19 (Homo sapiens) (UniProt Q56UN5); details: Compound concentration 1000.0 nM
Sequence of Mitogen-activated protein kinase kinase kinase 19 (Homo sapiens) (Q56UN5 whole entry): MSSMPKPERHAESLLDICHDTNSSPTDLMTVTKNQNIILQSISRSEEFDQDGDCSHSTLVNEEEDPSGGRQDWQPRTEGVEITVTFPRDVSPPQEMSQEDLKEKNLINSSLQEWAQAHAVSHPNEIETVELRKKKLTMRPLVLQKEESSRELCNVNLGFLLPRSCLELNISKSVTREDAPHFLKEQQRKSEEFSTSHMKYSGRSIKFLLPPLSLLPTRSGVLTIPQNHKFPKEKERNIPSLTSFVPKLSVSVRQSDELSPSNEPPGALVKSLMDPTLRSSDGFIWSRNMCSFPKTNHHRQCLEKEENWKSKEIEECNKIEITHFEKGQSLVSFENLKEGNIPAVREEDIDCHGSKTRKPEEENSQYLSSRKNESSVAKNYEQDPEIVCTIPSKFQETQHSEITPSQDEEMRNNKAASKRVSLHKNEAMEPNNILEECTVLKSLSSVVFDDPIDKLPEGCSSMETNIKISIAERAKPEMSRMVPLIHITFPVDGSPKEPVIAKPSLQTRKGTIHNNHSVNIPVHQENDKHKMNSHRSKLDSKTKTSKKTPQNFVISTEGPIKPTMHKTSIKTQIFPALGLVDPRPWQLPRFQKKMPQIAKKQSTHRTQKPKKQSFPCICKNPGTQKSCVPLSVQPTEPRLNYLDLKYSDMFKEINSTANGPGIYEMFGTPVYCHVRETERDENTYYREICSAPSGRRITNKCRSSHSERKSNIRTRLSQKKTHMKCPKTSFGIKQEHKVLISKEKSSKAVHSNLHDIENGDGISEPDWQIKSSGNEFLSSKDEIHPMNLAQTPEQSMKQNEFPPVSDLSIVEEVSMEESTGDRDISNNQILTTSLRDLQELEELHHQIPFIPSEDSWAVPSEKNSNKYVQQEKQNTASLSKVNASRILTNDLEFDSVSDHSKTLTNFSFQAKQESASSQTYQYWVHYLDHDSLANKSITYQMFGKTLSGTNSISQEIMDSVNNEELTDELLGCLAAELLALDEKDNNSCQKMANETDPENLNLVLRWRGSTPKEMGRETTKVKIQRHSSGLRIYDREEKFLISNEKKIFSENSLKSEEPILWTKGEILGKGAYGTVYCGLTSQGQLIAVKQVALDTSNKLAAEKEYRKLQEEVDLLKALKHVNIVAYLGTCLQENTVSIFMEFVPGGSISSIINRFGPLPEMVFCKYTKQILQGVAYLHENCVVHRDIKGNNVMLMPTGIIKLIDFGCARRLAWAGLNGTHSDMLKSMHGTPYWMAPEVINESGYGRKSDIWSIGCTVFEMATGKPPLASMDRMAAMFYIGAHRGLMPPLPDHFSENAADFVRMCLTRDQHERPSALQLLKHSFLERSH

[35] = target: 5-hydroxytryptamine receptor 1E (Homo sapiens) (UniProt P28566); details: Compound concentration 10.0 uM
[36] = target: D(2) dopamine receptor (Homo sapiens) (UniProt P14416); details: Compound concentration 10.0 uM
[37] = target: Histamine H3 receptor (Homo sapiens) (UniProt Q9Y5N1); details: Compound concentration 10.0 uM
[38] = target: T1, Alpha-2A adrenergic receptor (Homo sapiens) (UniProt P08913); details: Compound concentration 10.0 uM
T1 sequence (whole entry): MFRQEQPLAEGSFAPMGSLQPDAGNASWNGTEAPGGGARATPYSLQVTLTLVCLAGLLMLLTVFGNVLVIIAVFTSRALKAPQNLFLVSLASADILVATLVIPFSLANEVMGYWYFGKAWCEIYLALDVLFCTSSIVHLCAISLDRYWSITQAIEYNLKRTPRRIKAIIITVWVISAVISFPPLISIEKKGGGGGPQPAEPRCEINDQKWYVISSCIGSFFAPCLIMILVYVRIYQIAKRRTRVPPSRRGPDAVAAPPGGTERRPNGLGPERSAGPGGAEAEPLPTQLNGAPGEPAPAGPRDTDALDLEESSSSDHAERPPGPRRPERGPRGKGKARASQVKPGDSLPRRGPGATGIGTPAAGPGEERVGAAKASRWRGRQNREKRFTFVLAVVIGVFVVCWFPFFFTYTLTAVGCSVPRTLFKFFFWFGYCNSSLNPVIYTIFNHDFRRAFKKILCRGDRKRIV

[39] = species on record: Rattus norvegicus; details: Compound concentration 10.0 uM

CNC(=O)Nc1ccc2c(c1)CC[C@@]21OC(=O)N(CC(=O)N(Cc2ccc(F)cc2)[C@@H](C)C(F)(F)F)C1=O [A-485]
IC50 [1]: > 10 µM (not active) | inhibition [2]: 94% | inhibition [3]: 73% | inhibition [4]: -1% | residual activity [5]: 94% | residual activity [6]: 82% | residual activity [7]: 81% | residual activity [8]: 86% | residual activity [9]: 100% | residual activity [10]: 86% | residual activity [11]: 100% | residual activity [12]: 64% | residual activity [13]: 100% | residual activity [14]: 82% | residual activity [15]: 92% | residual activity [16]: 100% | residual activity [17]: 100% | residual activity [18]: 68% | residual activity [19]: 86% | residual activity [20]: 91% | residual activity [21]: 90% | residual activity [22]: 100% | residual activity [23]: 66% | residual activity [24]: 81% | residual activity [25]: 100% | residual activity [26]: 83% | residual activity [27]: 79% | residual activity [28]: 100% | residual activity [29]: 97% | residual activity [30]: 87% | residual activity [31]: 63% | residual activity [32]: 100% | residual activity [33]: 82% | residual activity [34]: 78% | inhibition [35]: 4.23% | inhibition [36]: 15.5% | inhibition [37]: 0.39% | inhibition [38]: 3.72% | inhibition [39]: 60%

CNC(=O)Nc1ccc2c(c1)[C@@]1(CC2)OC(=O)N(CC(=O)N(Cc2ccc(F)cc2)[C@@H](C)C(F)(F)F)C1=O [A-486]
IC50 [1]: > 10 µM (not active) | inhibition [2]: 27% | inhibition [3]: 5% | inhibition [4]: -1% | residual activity [5]: 100% | residual activity [6]: 100% | residual activity [7]: 100% | residual activity [8]: 66% | residual activity [9]: 100% | residual activity [10]: 100% | residual activity [11]: 100% | residual activity [12]: 85% | residual activity [13]: 100% | residual activity [14]: 84% | residual activity [15]: 96% | residual activity [16]: 94% | residual activity [17]: 100% | residual activity [18]: 95% | residual activity [19]: 75% | residual activity [20]: 100% | residual activity [21]: 85% | residual activity [22]: 79% | residual activity [23]: 67% | residual activity [24]: 91% | residual activity [25]: 100% | residual activity [26]: 97% | residual activity [27]: 81% | residual activity [28]: 100% | residual activity [29]: 74% | residual activity [30]: 84% | residual activity [31]: 54% | residual activity [32]: 100% | residual activity [33]: 100% | residual activity [34]: 73% | inhibition [35]: 0.33% | inhibition [36]: -8.75% | inhibition [37]: 13.2% | inhibition [38]: -1.4% | inhibition [39]: 50.6%
